Laboratory results: ChEMBL document CHEMBL1201862, “PubChem BioAssay data set” (2004)
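Results reflect a 48-hour exposure of cells in 96-well plates to compound at five concentrations. GI50 = concentration required for 50% inhibition of growth.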 Calls of active or inactive are those of the source. Rule as the data show it: active = GI50 up to about 1.1 µM and inactive = higher.

Legend:
Experiment in all cases: growth of human tumour cells (NCI), 48 h
[1] = test system: ACHN
[2] = test system: HCT-116
[3] = test system: HCT-15
[4] = test system: HOP-92
[5] = test system: K562
[6] = test system: MDA-N
[7] = test system: MOLT-4
[8] = test system: NCI-H226
[9] = test system: NCI-H522
[10] = test system: NCI/ADR-RES
[11] = test system: OVCAR-4
[12] = test system: OVCAR-5
[13] = test system: OVCAR-8
[14] = test system: RXF 393
[15] = test system: SF-539
[16] = test system: SK-MEL-5
[17] = test system: SK-OV-3
[18] = test system: SW-620
[19] = test system: UACC-62
[20] = test system: SNB-78

Row | Compound | GI50 [1] | GI50 [2] | GI50 [3] [µM] | GI50 [4] | GI50 [5] | GI50 [6] | GI50 [7] | GI50 [8] | GI50 [9] | GI50 [10] | GI50 [11] | GI50 [12] | GI50 [13] | GI50 [14] | GI50 [15] | GI50 [16] | GI50 [17] | GI50 [18] | GI50 [19] | GI50 [20]
1 | O=[N+]([O-])c1ccc2[nH]c(=S)[nH]c(=S)c2c1 | > 100 µM (inactive) | > 100 µM (inactive) | > 100 | > 100 µM (inactive) | > 100 µM (inactive) | > 100 µM (inactive) | > 100 µM (inactive) | > 100 µM (inactive) | > 100 µM (inactive) | > 100 µM (inactive) | > 100 µM (inactive) | > 100 µM (inactive) | > 100 µM (inactive) | > 100 µM (inactive) | > 100 µM (inactive) | > 100 µM (inactive) | > 100 µM (inactive) | > 10 µM (inactive) | > 100 µM (inactive) | 
2 | COc1c(C)c(OCC=C(C)C)cc(CO)c1CO | 67.8 µM (inactive) | 32.6 µM (inactive) | 41.5 | > 100 µM (inactive) | 26.3 µM (inactive) | 71.3 µM (inactive) | 26.7 µM (inactive) | 87.3 µM (inactive) | 7.46 µM (inactive) | 26.3 µM (inactive) | 35.6 µM (inactive) | > 100 µM (inactive) | 36 µM (inactive) | 10.7 µM (inactive) | 53.7 µM (inactive) | 22.6 µM (inactive) | 97.3 µM (inactive) | 74.5 µM (inactive) | 60.8 µM (inactive) | 
3 | O=C1c2ccccc2C2=Nc3ccncc3CN12 | > 100 µM (inactive) | > 100 µM (inactive) | > 100 | > 100 µM (inactive) | > 100 µM (inactive) | > 100 µM (inactive) | > 100 µM (inactive) | > 100 µM (inactive) | > 100 µM (inactive) | > 100 µM (inactive) | > 100 µM (inactive) | > 100 µM (inactive) | > 100 µM (inactive) | > 100 µM (inactive) | > 100 µM (inactive) | > 100 µM (inactive) | > 100 µM (inactive) | > 100 µM (inactive) | > 100 µM (inactive) | 
4 | c1ccc(C2=NN(c3ccccc3)C3(S2)SC(c2ccccc2)(c2ccccc2)c2ccccc23)cc1 (configuration not stated) | > 100 µM (inactive) | > 100 µM (inactive) | > 100 | > 100 µM (inactive) | > 100 µM (inactive) |  | > 100 µM (inactive) | > 100 µM (inactive) | > 100 µM (inactive) |  | > 100 µM (inactive) | > 100 µM (inactive) | > 100 µM (inactive) |  | > 100 µM (inactive) | > 100 µM (inactive) | > 100 µM (inactive) | > 100 µM (inactive) | > 100 µM (inactive) | > 100 µM (inactive)
5 | COC(=O)[C@H]1C=C[C@H](OC2OC(COC(C)=O)C(OC(C)=O)C(OC(C)=O)C2OC(C)=O)n2c(=O)n(-c3ccccc3)c(=O)n21 (some centres not stated) | 1.66 µM (inactive) | 2.96 µM (inactive) | 1.41 | 1.78 µM (inactive) | 1.77 µM (inactive) | 4.68 µM (inactive) | 2.49 µM (inactive) | 7.06 µM (inactive) | 0.222 µM (active) | 6.07 µM (inactive) | 2.87 µM (inactive) | 9.18 µM (inactive) | 5.78 µM (inactive) | 1.82 µM (inactive) | 2.09 µM (inactive) | 2.12 µM (inactive) | 18.4 µM (inactive) | 2.18 µM (inactive) | 1.54 µM (inactive) | 
6 | OCCN(CCO)c1cccc(N(CCO)CCO)c1 | > 100 µM (inactive) | > 100 µM (inactive) | > 100 | > 100 µM (inactive) | > 100 µM (inactive) |  | > 100 µM (inactive) |  | > 100 µM (inactive) |  | > 100 µM (inactive) |  | > 100 µM (inactive) | > 100 µM (inactive) |  | > 100 µM (inactive) | > 100 µM (inactive) | > 100 µM (inactive) | 72.8 µM (inactive) | > 100 µM (inactive)
7 | CCOC(=O)C(NC(=O)c1ccccc1)(N1CCN(c2cc3c(cc2F)c(=O)c(C(=O)O)cn3CC)CC1)C(F)(F)F (configuration not stated) | 33.1 µM (inactive) | 33.9 µM (inactive) | 24.4 | 28.8 µM (inactive) | 31.8 µM (inactive) | 37.7 µM (inactive) | 21.5 µM (inactive) | 29.2 µM (inactive) | 16.7 µM (inactive) | 41.4 µM (inactive) | 33.1 µM (inactive) | 21.1 µM (inactive) | 19.2 µM (inactive) | 33.8 µM (inactive) | 26.5 µM (inactive) | 22.9 µM (inactive) | 34.3 µM (inactive) | 47.6 µM (inactive) | 29.6 µM (inactive) | 
